The target of one assay is T1, PPP1R15B-PP1 (Homo sapiens, UniProt Q5SWA1).
T1 construct: cDNAs encoding amino acids 325-636 of PPP1R15A and 340-698 of PPP1R15B were His-tagged and cloned into pMAL-c5x; made in house; host or cells: R15B: E. coli BL21-Gold (pMAL-c5x); PP1γ: Sf9 insect cells (baculovirus, pDW464)
Kind of assay: SPR steady-state binding to R15B-PP1 holophosphatase. The settings on record: SPR steady-state, MBP-R15B340-698-His captured on bio-PP1c, 10° C.; read-out: R15B (KD). On the procedure:
PPP1R15A^325-636 and PPP1R15B^340-698 were expressed and purified as follows: the cDNAs encoding amino acids 325-636 of PPP1R15A and 340-698 of PPP1R15B were His-tagged and cloned into pMAL-c5x. Recombinant PPP1R15A/B were expressed in BL21-Gold cells and purified by affinity chromatography on a HisTrap HP column (GE Healthcare), followed by a MBPTrap HP column (GE Healthcare). The proteins were analyzed on BOLT SDS-PAGE 4-12% Bis-Tris gels (Life Technologies) stained with SimplyBlue SafeStain (Life Technologies). cDNA encoding for human PP1γ was cloned into the baculovirus transfer vector pDW464 to add a biotin acceptor peptide (BAP). The vector also encodes for the E. coli biotin holoenzyme synthetase (BirA), so that BAP-tagged proteins can be biotinylated in vivo in Spodoptere frugiperda (Sf9) insect cells (Duffy et al., Anal. Biochem., 262, 122-128, 1998). The Bac-to-Bac baculovirus expression system (Life Technologies) was used to generate the recombinant bacmid DNA and Sf9 insect cells were used to amplify the viral stocks Cultures were harvested by centrifuging at 1,200 g for 15 minutes, cell pellets were resuspended in lysis buffer (50 mM Tris pH 7.4, 150 mM NaCl, 0.2% Triton, 5% Glycerol, 1 PiC tablet (Roche) per 50 ml and 0.2 mM PMSF) and followed by gentle sonication. The protein was first purified on a 5 ml HiTrap Q HP column (GE Healthcare) followed by a HiLoad 16/600 Superdex 200 column (GE Healthcare). The positive fractions confirmed by SDS-PAGE and western blot were pooled, concentrate to ˜1 μM and stored at −80° C.
A Biacore T200 (GE Healthcare) system was used for all experiments and biotinylated PP1 was captured using a Sensor Chip SA (GE Healthcare, catalog no BR-1005-31). The streptavidin coated surface was activated by 1 min injection with a solution of 50 mM NaOH and 1 M NaCl. Biotin-PP1 was diluted in the running buffer (50 mM Tris pH 7.5, 100 mM NaCl, 0.1 mM EGTA, 1 mM MnCl2, 0.05% Tween 20) and injected at approximately 300 nM concentration directly to streptavidin coated surface for 100 sec or to reach immobilization level of biotin-PP1 corresponding to ˜7000 RU. A blank immobilization was performed for one of the SA sensor chip surface to use as a reference.
With minor deviations, the same procedure and conditions were used in all binding experiments. Small molecules were stored as 50 mM stock solutions in 100% DMSO. Prior to determining binding constants, serial dilutions of either 12 or 8 concentrations of the compounds were prepared in the running buffer in a 96-well plate. Prior to each compound dilution series the regulatory subunit, R15A or R15B, was diluted to […] in the running buffer and captured on the biotin-PP1 surface, to form the holophosphatase complex on the sensor chip surface. Then, without regenerating the surface, the compound dilution series was injected onto the surface of the chip Sensorgrams were analyzed using the Biacore T200 evaluation software and the binding constants determined based on a steady-state model. Kinetic experiments are carried out using different concentrations of the compound and their respective equilibrium binding levels determined.
Surface Plasmon Resonance (SPR) was used to measure the binding affinity of compounds to the PPP1R15A/B-PP1 phosphatase complex. Biotin acceptor peptide (BAP) was fused to the N-terminus of PP1γ, which enables the biotinylation of the BAP-tagged protein in Sf9 insect cells. After purification the BAP-PP1γ protein was captured on a streptavidin sensor chip (SA-chip, GE healthcare) to a response level of ˜5.000 RU. Using controlled biotinylation enables orientated and uniform immobilization on the sensor chip surface. The PP1γ was then used to capture PPP1R15A/B and form a holophosphatase complex on the surface of the streptavidin chip. This complex can then be used to test binding of compounds. 10 μM PPP1R15A/B protein concentration was used to form the holophosphatase complex during a 80 s injection. […]

For a further assay, the system named is R15A or R15B. The experiment in a line: Selective binding towards R15A or R15B (based on SPR). Details: species or system human. On the procedure: In one embodiment, the compounds of formula IB inhibit PPP1R15A and PPP1R15B. Inhibition of PPP1R15A and PPP1R15B can be determined from binding analysis. For example, binding can be analysed using SPR (surface plasmon resonance) to obtain KD values. A PPP1R15A and PPP1R15B inhibitor may be defined as a compound where the difference in KD values between R15A and R15B is no more than about 3 fold.
Small molecules were stored as 50 mM stock solutions in 100% DMSO. Prior to determining binding constants, serial dilutions of either 12 or 8 concentrations of the compounds were prepared in the running buffer in a 96-well plate. Prior to each compound dilution series the regulatory subunit, MBP-R15A^325-636-His or MBP-R15B^340-698-His, was diluted to 10 μM in the running buffer and captured on the bio-PP1c surface at a flow rate of 30 μl/min for 1 minute to form the holophosphatase complex on the sensor chip surface. This was followed by 1 minute stabilization period, to wash off any unspecific binding. Then, without regenerating the surface, the compound dilution series was injected onto the surface of the chip at a flow rate of 30 μl/min for 1 minute, followed by 2 minutes dissociation time. After each dilution series the surface was regenerated using 3 M NaCl for 90 seconds. After regeneration, SPR responses generally returned to base levels and the bio-PP1c surface was ready for the next compound dilution series. In order to be able to correct for small variations in DMSO concentration between samples, eight solvent samples ranging from 0.06 to 8% DMSO were injected every 50th cycle. The flow cell temperature was 10° C.
Sensorgrams were analyzed using the Biacore T200 evaluation software and the binding constants determined based on a steady-state model. Kinetic experiments are carried out using different concentrations of the compound and their respective equilibrium binding levels determined.

T1 sequence (Q5SWA1 340-698): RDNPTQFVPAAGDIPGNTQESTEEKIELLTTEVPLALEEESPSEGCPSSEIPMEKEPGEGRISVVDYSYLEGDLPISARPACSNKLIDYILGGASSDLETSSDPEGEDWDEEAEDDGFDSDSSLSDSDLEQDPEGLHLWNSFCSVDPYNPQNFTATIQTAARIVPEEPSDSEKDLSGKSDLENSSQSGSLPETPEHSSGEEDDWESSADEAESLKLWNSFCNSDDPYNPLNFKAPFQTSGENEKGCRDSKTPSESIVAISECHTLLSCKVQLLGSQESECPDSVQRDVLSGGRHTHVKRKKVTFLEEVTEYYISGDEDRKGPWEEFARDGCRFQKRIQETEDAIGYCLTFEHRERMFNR
T1 sequence (P36873 whole entry partner, the tested form may be a part): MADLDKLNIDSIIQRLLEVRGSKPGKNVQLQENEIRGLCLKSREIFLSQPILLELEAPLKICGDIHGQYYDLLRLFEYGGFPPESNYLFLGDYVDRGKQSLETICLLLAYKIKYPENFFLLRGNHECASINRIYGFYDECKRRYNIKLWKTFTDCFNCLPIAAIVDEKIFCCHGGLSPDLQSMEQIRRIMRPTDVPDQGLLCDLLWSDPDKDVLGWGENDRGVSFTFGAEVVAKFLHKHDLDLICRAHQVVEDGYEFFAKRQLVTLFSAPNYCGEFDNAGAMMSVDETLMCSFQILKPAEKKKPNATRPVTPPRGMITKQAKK

As to `[H]/N=C(\N)NN=Cc1cc(F)ccc1Cl` [Compound 20, (E)-2-(2-chloro-5-fluorobenzylidene)hydrazine-1-carboximidamide], the Kd (commonly the free concentration of one partner at which half of the binding sites on the other are occupied at equilibrium, for simple one-to-one binding) at PPP1R15B-PP1 came out at 5.17 ± 0.69 µM. Further, the “Selective binding towards R15A or R15B (based on SPR)” value in the assay on R15A or R15B was “R15AB (A PPP1R15A and PPP1R15B inhibitor may be defined as a compound where the difference in KD values between R15A and R15B is no more than about 3 fold)”.
As to `[H]/N=C(\N)NN=Cc1cccnc1Cl` [Compound 21, (E)-2-((2-chloropyridin-3-yl)methylene)hydrazine-1-carboximidamide], the Kd on PPP1R15B-PP1 was 0.537 µM. In addition, the “Selective binding towards R15A or R15B (based on SPR)” value in the assay on R15A or R15B was “R15AB (A PPP1R15A and PPP1R15B inhibitor may be defined as a compound where the difference in KD values between R15A and R15B is no more than about 3 fold)”.
For the molecule `[H]/N=C(\N)NN=Cc1ccc(Cl)nc1Cl` [Compound 22, (E)-2-((2,6-dichloropyridin-3-yl)methylene)hydrazine-1-carboximidamide], on PPP1R15B-PP1, the Kd stood at 12.3 µM. In addition, in the assay with R15A or R15B, the “Selective binding towards R15A or R15B (based on SPR)” value is “R15AB (A PPP1R15A and PPP1R15B inhibitor may be defined as a compound where the difference in KD values between R15A and R15B is no more than about 3 fold)”.
In the case of `[H]/N=C(\N)NN=Cc1cccc(F)c1` [Compound 23, (E)-2-(3-fluorobenzylidene)hydrazine-1-carboximidamide], the equilibrium dissociation constant (Kd) at PPP1R15B-PP1 is 1.05 ± 0.32 µM. In the assay with R15A or R15B, the “Selective binding towards R15A or R15B (based on SPR)” value is “R15AB (A PPP1R15A and PPP1R15B inhibitor may be defined as a compound where the difference in KD values between R15A and R15B is no more than about 3 fold)”.
Regarding `[H]/N=C(\N)NN=Cc1cccc(Cl)c1` [Compound 24, (E)-2-(3-chlorobenzylidene)hydrazine-1-carboximidamide], at PPP1R15B-PP1, the Kd was 18.7 µM. Besides, in the assay on R15A or R15B, the “Selective binding towards R15A or R15B (based on SPR)” value is “R15AB (A PPP1R15A and PPP1R15B inhibitor may be defined as a compound where the difference in KD values between R15A and R15B is no more than about 3 fold)”.
On to `[H]/N=C(\N)NN=Cc1cc(Cl)ccc1Cl` [Compound 26, (E)-2-(2,5-dichlorobenzylidene)hydrazine-1-carboximidamide], for which the Kd at PPP1R15B-PP1 turned out to be 30 ± 2.3 µM. In addition, in the assay on R15A or R15B, the “Selective binding towards R15A or R15B (based on SPR)” value is “R15AB (A PPP1R15A and PPP1R15B inhibitor may be defined as a compound where the difference in KD values between R15A and R15B is no more than about 3 fold)”.
As to `[H]/N=C(\N)NN=Cc1cc(F)cc(F)c1Cl` [Compound 29, (E)-2-(2-chloro-3,5-difluorobenzylidene)hydrazine-1-carboximidamide], the Kd at PPP1R15B-PP1 is 4.06 µM. For the same molecule, the “Selective binding towards R15A or R15B (based on SPR)” value in the assay on R15A or R15B was “R15AB (A PPP1R15A and PPP1R15B inhibitor may be defined as a compound where the difference in KD values between R15A and R15B is no more than about 3 fold)”.
With `[H]/N=C(\N)NN=Cc1cccc(Cl)c1F` [Compound 30, (E)-2-(3-chloro-2-fluorobenzylidene)hydrazine-1-carboximidamide], the Kd on PPP1R15B-PP1 came to 12.3 ± 0.6 µM. Moreover, the “Selective binding towards R15A or R15B (based on SPR)” value with R15A or R15B is “R15AB (A PPP1R15A and PPP1R15B inhibitor may be defined as a compound where the difference in KD values between R15A and R15B is no more than about 3 fold)”.
For the molecule `[H]/N=C(\N)NN=Cc1c(Cl)ccc(Cl)c1Cl` [Compound 31, (E)-2-(2,3,6-trichlorobenzylidene)hydrazine-1-carboximidamide], on PPP1R15B-PP1, the Kd stood at 14.3 ± 0.7 µM. The “Selective binding towards R15A or R15B (based on SPR)” value with R15A or R15B is “R15AB (A PPP1R15A and PPP1R15B inhibitor may be defined as a compound where the difference in KD values between R15A and R15B is no more than about 3 fold)”.
Regarding `[H]/N=C(\N)NN=Cc1cc(Cl)cc(Cl)c1` [Compound 34, (E)-2-(3,5-dichlorobenzylidene)hydrazine-1-carboximidamide], at PPP1R15B-PP1, the Kd was determined as 31.3 ± 2 µM. In the assay on R15A or R15B, the “Selective binding towards R15A or R15B (based on SPR)” value was “R15AB (A PPP1R15A and PPP1R15B inhibitor may be defined as a compound where the difference in KD values between R15A and R15B is no more than about 3 fold)”.
